# Experiments:
# [1] = molecular target: human recombinant full-length Btk enzyme (Homo sapiens, UniProt Q06187); assay: Covalent bonding assay, intact protein MALDI mass spectrometry; type: binding; set-up: The full-length recombinant human Btk protein; purchased Invitrogen Lot #619547Q (catalogue number not given); settings: percentage of total protein covalently modified after one hour incubation, 10-fold excess of compound, room temperature
# Experimental: The following example describes testing certain compounds to determine whether they covalently bind to BTK. The full-length recombinant human Btk protein (Lot #619547Q; 0.35 mg/mL) was obtained from Invitrogen (Carlsbad, Calif.). Btk protein was diluted 2:3 in phosphate-buffered saline and stock concentration (10 mM) of compound was diluted 1:115 in 50% DMSO.
# For all compounds, 1 μL of diluted compound was added to 5 μL of diluted protein. These mixtures were then incubated for 60 minutes at a 10-fold excess of compound to protein under room temperature (˜24° C.) conditions.
# At the end of the incubation, 5 μL aliquots of the samples were diluted with 15 μL of 0.2% TFA prior to micro C4 ZipTipping® directly onto the MALDI target plate using sinapinic acid as the desorption matrix (10 mg/mL in 0.2% TFA:Acetonitrile 50:50). Samples were immediately analyzed on an ABSciex 4800 MALDI TOF-TOF mass spectrometer.
# For intact protein mass measurement, the mass spectrometer was set in linear mode using a pulsed extraction setting of 81,500. Bovine serum albumin (BSA; Sigma, St Louis, Mo.) was used as the standard to calibrate the instrument. These values correspond to the percentage of total protein covalently modified by the tested compound after one hour incubation.
# [2] = molecular target: T1, BTK autophosphorylation (Phospho Y223 Btk) in Ramos cells (Homo sapiens, UniProt Q06187); assay: Btk Ramos cell signaling immunoblot analysis, phospho-Btk; type: cell-based; settings: 1 hour compound incubation, anti-human IgM stimulation, phospho-Btk normalized to total Btk, read-out: pBtk EC50
# T1 construct: endogenous in cells; host or cells: Ramos cells
# T1 sequence (Q06187 whole entry): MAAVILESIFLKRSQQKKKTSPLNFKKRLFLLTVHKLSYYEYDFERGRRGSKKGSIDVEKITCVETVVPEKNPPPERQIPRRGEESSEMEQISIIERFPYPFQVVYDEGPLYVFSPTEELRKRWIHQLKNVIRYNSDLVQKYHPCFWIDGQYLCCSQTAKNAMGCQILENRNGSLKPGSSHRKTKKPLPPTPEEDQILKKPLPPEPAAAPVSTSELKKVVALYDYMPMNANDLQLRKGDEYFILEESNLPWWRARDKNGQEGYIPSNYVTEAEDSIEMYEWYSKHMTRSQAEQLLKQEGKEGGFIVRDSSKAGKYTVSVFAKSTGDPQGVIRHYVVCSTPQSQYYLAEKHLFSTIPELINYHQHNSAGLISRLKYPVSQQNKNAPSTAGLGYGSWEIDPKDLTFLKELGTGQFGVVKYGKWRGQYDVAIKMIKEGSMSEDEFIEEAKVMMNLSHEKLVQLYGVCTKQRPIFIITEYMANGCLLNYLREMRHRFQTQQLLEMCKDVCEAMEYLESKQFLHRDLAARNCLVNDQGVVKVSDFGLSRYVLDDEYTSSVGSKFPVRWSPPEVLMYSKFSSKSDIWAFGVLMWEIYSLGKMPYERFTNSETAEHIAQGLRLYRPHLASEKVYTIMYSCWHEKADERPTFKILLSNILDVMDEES
# Experimental: (§1) The following example describes testing certain compounds according to the invention for inhibition of BTK activity. Ramos cells were incubated in serum-free RPMI medium for 1-1.5 hours. Cells were then centrifuged for 5 minutes at 1100 RPM and resuspended in serum-free RPMI in 15 mL roundbottom Corning tubes (˜2×10^6 cells/mL in 4 mL/tube). The compound was diluted in DMSO and was added to the cells to achieve a final concentration of 0.0003, 0.001, 0.003, 0.01, 0.03, 0.1, 0.3, and 1.0 μM. Cells were then incubated for 1 hour at 37° C. Following incubation, cells were spun at 1100 RPM for 5 minutes and then resuspended in 100 μL of serum-free RPMI. […] Supernatant was transferred to a fresh tube and analyzed for protein content. […]
# (§2) 10 μg of protein was denatured by adding 1:10 (v:v) of NuPage Reducing Agent plus 1:4 (v:v) of LDS Loading Buffer. […] The membrane was then scanned on a LiCor Odyssey Scanner using infrared fluorescence detection.
# (§3) Data analysis was accomplished using the analysis package found in Odyssey Infrared Imaging System software in which intensities of total Btk and phospho-Btk were measured. Phospho-Btk was normalized to total Btk protein in each lane as a loading control and results are expressed as % activity compared to the DMSO control (100%) Inhibition of phospho-PLCγ2 was quantitated in a similar manner. […]
# [3] = system: PLCγ2 phosphorylation (Phospho Y-1217 PLCγ2) in Ramos cells; assay: Btk Ramos cell signaling immunoblot analysis, phospho-PLCγ2; type: cell-based; settings: 1 hour compound incubation, anti-human IgM stimulation, read-out: pPLCγ2 EC50
# Experimental: as §1, §2, §3
# Chain of human recombinant full-length Btk enzyme (Q06187 whole entry): as above
MS % modification [1],EC50 [2],EC50 [3],Structure (SMILES)
B (31-69% modification),< 10 nM,< 10 nM,"C=CC(=O)Nc1cccc(Nc2nc(Nc3ccc(OCCO)cc3)ncc2F)c1 [Compound I-1, N-(3-((5-fluoro-2-((4-(2-hydroxyethoxy)phenyl)amino)pyrimidin-4-yl)amino)phenyl)acrylamide]"
A (>70% modification),10 to 50 nM,10 to 50 nM,"C=CC(=O)Nc1cccc(Nc2nc(Nc3ccc(O)cc3)ncc2F)c1 [Compound I-3, N-(3-((5-fluoro-2-((4-hydroxyphenyl)amino)pyrimidin-4-yl)amino)phenyl)acrylamide]"

# Reference: patent US9415049B2, “Heteroaryl compounds and uses thereof” (Celgene Avilomics Research, Inc., priority 2013, dated 2016)
